Experimental data reported in patent US11478451B1, “Macrocyclic chlorine substituted indole derivatives” (Bayer Aktiengesellschaft, priority 2017, dated 2022).
“And” between values parts separate entries of the source, which are not always exact repeats. Equal values may be shown once. Where a name gives a salt, the structure may show the parent alone. Read-outs that look alike come from different tables or passages of the source.

Legend:
HMC-1-8 cells = assay: Antiproliferation assay (CellTiter-Glo, 72 h), HMC-1-8; type: cell-based; details: IC50, median; HMC-1-8, 72 h; read-out: Antiproli HMC-1-8 [M] median
Method in brief: (§1)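 Cells were exposed to compounds for 72 h at 37 °C in a humidified incubator, with rim wells excluded. Viability was read by CellTiter-Glo luminescence after a 10 min incubation. A parallel day 0 plate, read the same way, gave the time-zero baseline.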

MV-4-11 cells = assay: Antiproliferation assay (CellTiter-Glo, 72 h), MV-4-11; type: cell-based; details: IC50, median; MV-4-11, 72 h; read-out: Antiproli MV-4-11 [M] median
Method in brief: as §1

AMO-1 cells = assay: Antiproliferation assay (CellTiter-Glo, 72 h), AMO-1; type: cell-based; details: IC50, median; AMO-1, 72 h; read-out: Antiproli AMO-1 [M] median
Method in brief: as §1

MCL-1 [1] = biological target: T1, MCL-1 (Homo sapiens (Human), UniProt Q07820, K194A/K197A/R201A); assay: Protein-compound interaction assay (SPR assay); type: binding; details: equilibrium dissociation constant, geometric mean, SPR 25° C.
Text: Protein-Compound Interaction Assay (SPR Assay)
The ability of the compounds described in this invention to bind to MCL-1 may be determined using surface plasmon resonance (SPR). This allows for the quantification of binding in terms of the equilibrium dissociation constant (KD [M]), as well as association and dissociation rate constants (kon [1/M 1/s] and koff [1/s], respectively). The measurements may be performed using Biacore® T200 or Biacore® S200 instruments (GE Healthcare).
Subsequently, a solution of 1 M ethanolamine-HCl (GE Healthcare) was injected to block unreacted groups, resulting in approximately 400-2500 response units (RU) of immobilized protein. A reference surface was generated by treatment with NHS-EDC and ethanolamine-HCl.
The double-referenced sensorgrams were fit to a simple reversible Langmuir 1:1 reaction mechanism as implemented in the Biacore® T200 and S200 evaluation software (T200 evaluation software version 2.0 and S200 evaluation software version 1.0, GE Healthcare).

A2058 cells = assay: Antiproliferation assay (CellTiter-Glo, 72 h), A2058; type: cell-based; details: IC50, median; A2058, 72 h; read-out: Antiproli A2058 [M] median
Procedure: (§2) Assessment of the Anti-Proliferative Effect of Compounds in Different Cell Lines
(§3) The impact of compounds on the proliferation of different cell lines was assessed using the CellTiter-Glo® Luminescent Cell Viability reagent from Promega (G7573).
(§4) In parallel, cells were plated in a reference (day 0) plate for time zero determination.
(§5) Rim wells were excluded. The cells were incubated for 72 h hours in a humidified incubator at 37° C. The day 0 plate was measured by adding 30 μL/well of CTG solution (CellTiter-Glo® Luminescent Cell Viability reagent, Promega G7573) to time zero wells in the reference plate followed by a 10 minutes incubation and luminescence reading at 0.1 ms. using the PHERAstar FS microplate reader (BMG Labtech).
(§6) After 72 h incubation, the treated plates were measured in the same way as the day 0 plate mentioned above.

SUDHL10 cells [2] = assay: Antiproliferation assay (CellTiter-Glo, 72 h), SUDHL10; type: cell-based; details: IC50, median; SUDHL10, 72 h; read-out: Antiproli SUDHL10 [M] (median)
Procedure: as §2, §3, §4, §5, §6

SK-BR-3 cells = assay: Antiproliferation assay (CellTiter-Glo, 72 h), SK-BR-3; type: cell-based; details: IC50, median; SK-BR-3, 72 h; read-out: Antiproli SK-BR-3 [M] median
Procedure: as §2, §3, §4, §5, §6

SUDHL5 cells [3] = assay: Antiproliferation assay (CellTiter-Glo, 72 h), SUDHL5; type: cell-based; details: IC50, median; SUDHL5, 72 h; read-out: Antiproli SUDHL5 [M] (median)
Method in brief: as §1

SUDHL10 cells [4] = assay: Induction of cytotoxicity (CellTiter-Glo, 5 h), SUDHL10; details: read-out: Cytotox SUDHL10 [M] (median); IC50, median; SUDHL10, 5 h
DMS-114 cells = assay: Antiproliferation assay (CellTiter-Glo, 72 h), DMS-114; type: cell-based; details: IC50, median; DMS-114, 72 h; read-out: Antiproli DMS-114 [M] median
Method in brief: as §1

SNU-389 cells = assay: Antiproliferation assay (CellTiter-Glo, 72 h), SNU-389; type: cell-based; details: IC50, median; SNU-389, 72 h; read-out: Antiproli SNU-389 [M] median
Method in brief: as §1

KYSE-180 cells = assay: Antiproliferation assay (CellTiter-Glo, 72 h), KYSE-180; type: cell-based; details: IC50, median; KYSE-180, 72 h; read-out: Antiproli KYSE-180 [M] median
Procedure: as §2, §3, §4, §5, §6

T47D cells = assay: Antiproliferation assay (CellTiter-Glo, 72 h), T47D; type: cell-based; details: IC50, median, T47D (head printed T4713), read-out: Antiproli T4713 [M] median
Procedure: as §2, §3, §4, §5, §6

BCL-XL = BCL-XL (Homo sapiens (Human), UniProt Q07817); assay: Protein-protein interaction assay BCL-XL/Bad BH3 peptide (BCL-XL assay), TR-FRET; type: binding; details: IC50, median
Procedure: The dose-dependent inhibition by the compounds described in this invention of the interaction between BCL-XL and the BH3 domain of Bad (both human) was determined using a steady state binding competition assay with time-resolved fluorescence energy transfer (TR-FRET) readout.
(§7) For that, 100-fold concentrated DMSO solutions were prepared by serial dilutions (1:3.4) of a 2 mM stock solution in a clear, 384-well microtiter plate (Greiner Bio-One, Frickenhausen, Germany). From there, 50 nl were transferred in a dark test plate (Greiner Bio-One, Frickenhausen, Germany). […] This was followed by a 10-minute incubation step at 22° C. for pre-equilibration of the putative complex between His-BCL-XL and the compounds.
(§8) The mixture was incubated in the dark for one hour at 22° C. and then overnight at 4° C.
(§9) The resulting data (ratio) were normalized, taking 0% inhibition as the mean value of control measurements (usually 32 data points) where all reagents were included. In this case 50 nl DMSO were used instead of compounds. […] IC50 values were determined by regression analysis based on a 4 parameter equation (minimum, maximum, IC50, Hill; Y=Max+(Min−Max)/(1+(X/IC50)^Hill) using the Screener Software (Genedata).

MCL-1 [5] = biological target: T1, MCL-1; assay: Protein-protein interaction assay MCL-1/Noxa BH3 peptide (MCL-1 assay), TR-FRET; type: binding; details: IC50, median; MCL-1/Noxa BH3 TR-FRET
Procedure: The dose-dependent inhibition by the compounds described in this invention of the interaction between MCL-1 and the BH3 domain of Noxa (both human) was determined using a steady state binding competition assay with time-resolved fluorescence energy transfer (TR-FRET) readout. […] The MBP-MCL-1 was purchased from Beryllium (Bedford, Mass., USA). The expression and purification of this protein construct has been described elsewhere (DOI:10.1371/journal.pone.0125010). The Noxa BH3-derived peptide can be obtained from e.g. Biosyntan (Berlin, Germany), 50812.1.
as §7, with “MBP-MCL-1” for “His-BCL-XL”
as §8, §9

SUDHL5 cells [6] = assay: Induction of caspase-3/7 activity (Caspase-Glo 3/7), SUDHL5; type: cell-based; details: EC50, median; SUDHL5, 3 h treatment
Method in brief: (§10)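 DLBCL lines were exposed to test compounds for 3 h at 37 °C in a humidified incubator, then caspase-3/7 activity was measured with Caspase-Glo 3/7 reagent. Medium-only background was subtracted from all readings.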

SUDHL10 cells [7] = assay: Induction of caspase-3/7 activity (Caspase-Glo 3/7), SUDHL10; type: cell-based; details: EC50, median; SUDHL10, 3 h treatment
Method in brief: as §10

SUDHL10 cells [8] = test system: SUDHL10 cells
BCL-2 = BCL-2 (Homo sapiens (Human), UniProt P10415); assay: Protein-protein interaction assay BCL-2/Bad BH3 peptide (BCL-2 assay), TR-FRET; type: binding; details: IC50, median; BCL-2/Bad BH3 TR-FRET
Procedure: The dose-dependent inhibition by the compounds described in this invention of the interaction between BCL-2 and the BH3 domain of Bad (both human) was determined using a steady state binding competition assay with time-resolved fluorescence energy transfer (TR-FRET) readout.
as §7, with “His-BCL-2” for “His-BCL-XL”
as §8, §9

SUDHL5 cells [9] = test system: SUDHL5 cells

Chain of BCL-2 (P10415 1-211): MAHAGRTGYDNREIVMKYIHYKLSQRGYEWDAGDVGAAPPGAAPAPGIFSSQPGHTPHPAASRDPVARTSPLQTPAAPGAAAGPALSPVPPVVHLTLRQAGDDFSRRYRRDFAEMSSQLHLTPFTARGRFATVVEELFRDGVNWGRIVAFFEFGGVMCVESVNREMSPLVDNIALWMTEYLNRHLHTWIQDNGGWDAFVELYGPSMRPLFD
T1 sequence (Q07820 whole entry K194A/K197A/R201A, looked up): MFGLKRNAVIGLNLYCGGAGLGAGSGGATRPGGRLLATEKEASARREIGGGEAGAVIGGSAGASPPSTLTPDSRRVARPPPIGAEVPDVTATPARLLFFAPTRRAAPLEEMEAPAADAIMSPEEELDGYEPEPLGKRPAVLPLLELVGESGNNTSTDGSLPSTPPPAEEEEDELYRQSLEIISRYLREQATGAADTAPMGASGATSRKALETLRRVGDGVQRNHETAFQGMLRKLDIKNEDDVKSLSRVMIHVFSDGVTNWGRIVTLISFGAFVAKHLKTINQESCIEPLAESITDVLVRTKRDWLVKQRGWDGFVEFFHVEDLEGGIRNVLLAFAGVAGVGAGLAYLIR
Chain of BCL-XL (Q07817 1-212): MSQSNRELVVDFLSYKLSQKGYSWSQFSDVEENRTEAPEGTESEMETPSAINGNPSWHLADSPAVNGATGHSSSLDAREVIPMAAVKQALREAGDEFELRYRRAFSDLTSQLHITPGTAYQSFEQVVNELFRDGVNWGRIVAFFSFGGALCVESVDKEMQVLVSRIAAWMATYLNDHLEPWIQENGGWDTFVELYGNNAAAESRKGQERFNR

## Cc1c2c(nn1C)CN(C)CCCCn1c(C(=O)O)c(CCCOc3cccc4cc(F)ccc34)c3ccc(Cl)c-2c31 (single isomer, unassigned; enantiomer 1) [Example 31, (+)-4-chloro-7-{3-[(6-fluoronaphthalen-1-yl)oxy]propyl}-2,3,14-trimethyl-10,11,12,13,14,15-hexahydro-2H-pyrazolo[3′,4′:8,9][1,6]diazacycloundecino[10,11,1-hi]indole-8-carboxylic acid-N-ethylethanamine salt (Enantiomer 1)]
HMC-1-8 cells
  IC50: 1.9e-06 M
MV-4-11 cells
  IC50: 2.75e-07 M
AMO-1 cells
  IC50: 1.7e-07 M
MCL-1 [1]
  Kd: 0.43 nM

## Cc1c2c(nn1C)CN(C)CCCCn1c(C(=O)O)c(CCCOc3cccc4ccccc34)c3ccc(Cl)c-2c31 (single isomer, unassigned; enantiomer 1) [Example 12, (+)-4-chloro-2,3,14-trimethyl-7-[3-(naphthalen-1-yloxy)propyl]-10,11,12,13,14,15-hexahydro-2H-pyrazolo[3′,4′:8,9][1,6]diazacycloundecino[10,11,1-hi]indole-8-carboxylic acid-N-ethylethanamine salt (Enantiomer 1)]
A2058 cells
  IC50: 4.83e-06 M
SUDHL10 cells [2]
  IC50: 1.4e-07 M
HMC-1-8 cells
  IC50: 1.6e-06 M
MV-4-11 cells
  IC50: 4.41e-07 M
SK-BR-3 cells
  IC50: 6.67e-07 M
AMO-1 cells
  IC50: 3.3e-07 M
SUDHL5 cells [3]
  IC50: 1.7e-07 M
SUDHL10 cells [4]
  IC50: 1.4e-07 M
DMS-114 cells
  IC50: 1.32e-06 M
SNU-389 cells
  IC50: 7.22e-07 M
KYSE-180 cells
  IC50: 3.79e-06 M
T47D cells
  IC50: 7.1e-06 M

## CCc1c2c(nn1C)COC/C=C\Cn1c(C(=O)O)c(CCCOc3cccc4ccccc34)c3ccc(Cl)c-2c31 (racemic) [Example 18, (rac)-(11Z)-4-chloro-3-ethyl-2-methyl-7-[3-(naphthalen-1-yloxy)propyl]-2,10,13,15-tetrahydropyrazolo[4′,3′:9,10][1,6]oxazacycloundecino[8,7,6-hi]indole-8-carboxylic acid]
BCL-XL
  IC50: > 20000 nM
MCL-1 [5]
  IC50: 1.3 nM
SUDHL5 cells [6]
  EC50: 1100 nM
MV-4-11 cells
  IC50: 4.71e-06 M
SUDHL5 cells [3]
  IC50: 1.4e-06 M
SUDHL10 cells [7]
  EC50: 1300 nM
SUDHL10 cells [8]
  IC50: 1300 nM
BCL-2
  IC50: > 20000 nM and 19000 nM and 20000 nM
SUDHL5 cells [9]
  IC50: 1200 nM
